Experimental data: patent publication US9302999B2, “Substituted triazoles as herbicides” (E. I. DU PONT DE NEMOURS AND COMPANY, priority 2012, dated 2016)

How the values were obtained:
[1] = test system: barnyardgrass (Echinochloa crus-galli); experiment: Test F pre-/postemergence: barnyardgrass; format: in vivo; conditions: Preemergence
How it was run: (§1)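 Seeds were sown in silt loam soil and sprayed preemergence with test chemical in a non-phytotoxic solvent mixture containing surfactant; postemergence treatments went onto plants 2 to 18 cm tall (1- to 4-leaf stage) grown in peat moss/vermiculite medium. After 14 to 21 days in a greenhouse, injury was rated visually against controls, 0 (no effect) to 100 (complete control).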

[2] = test system: arrowleaf sida (Sida rhombifolia); experiment: Test F pre-/postemergence: arrowleaf sida; format: in vivo; conditions: Preemergence
How it was run: as §1

[3] = test system: crabgrass, large (large crabgrass, Digitaria sanguinalis); experiment: Test F pre-/postemergence: crabgrass, large; format: in vivo; conditions: Preemergence
How it was run: as §1

Waterhemp = experiment: Test C preemergence: waterhemp; format: in vivo, Amaranthus rudis; conditions: 125 g ai/ha, scale 0 to 100, 0 no effect, 100 complete control
[4] = test system: barley, spring (spring barley, Hordeum vulgare); experiment: Test D pre-/postemergence: barley, spring; format: in vivo
How it was run: (§2)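 Visual ratings from 0 (no effect) to 100 (complete control) were made 14–21 days after treatment, relative to controls. Applications were preemergence to seeds in silt loam, or postemergence to 2–18 cm (1–4 leaf) plants in peat-based medium. Compounds were formulated in a surfactant-containing non-phytotoxic solvent.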

[5] = test system: radish, wild (wild radish, Raphanus raphanistrum); experiment: Test D pre-/postemergence: radish, wild; format: in vivo
How it was run: as §2

[6] = test system: chickweed (common chickweed, Stellaria media); experiment: Test D pre-/postemergence: chickweed; format: in vivo
How it was run: as §2

[7] = 16 g ai/ha, scale 0 to 100, 0 no effect, 100 complete control
[8] = 31 g ai/ha, scale 0 to 100, 0 no effect, 100 complete control
[9] = Postemergence, 31 g ai/ha, scale 0 to 100 (0 no effect, 100 complete control)
[10] = Postemergence, 62 g ai/ha, scale 0 to 100 (0 no effect, 100 complete control)
[11] = Postemergence, 125 g ai/ha, scale 0 to 100, 0 no effect, 100 complete control
[12] = Postemergence, 16 g ai/ha, scale 0 to 100
[13] = Preemergence, 16 g ai/ha, scale 0 to 100, 0 no effect, 100 complete control
[14] = Preemergence, 31 g ai/ha, scale 0 to 100, 0 no effect, 100 complete control
[15] = Preemergence, 62 g ai/ha, scale 0 to 100
[16] = Preemergence, 125 g ai/ha, scale 0 to 100

SMILES	Plant response rating, Barnyardgrass ([1]; 62 g ai/ha, scale 0 to 100)	Plant response rating, Barnyardgrass ([1]; 125 g ai/ha, scale 0 to 100)	Plant response rating, Barnyardgrass ([1]; 250 g ai/ha, scale 0 to 100)	Plant response rating, Arrowleaf Sida ([2]; 62 g ai/ha, scale 0 to 100)	Plant response rating, Arrowleaf Sida ([2]; 125 g ai/ha, scale 0 to 100)	Plant response rating, Arrowleaf Sida ([2]; 250 g ai/ha, scale 0 to 100)	Plant response rating, Crabgrass, Large ([3]; 62 g ai/ha, scale 0 to 100)	Plant response rating, Crabgrass, Large ([3]; 125 g ai/ha, scale 0 to 100)	Plant response rating, Crabgrass, Large ([3]; 250 g ai/ha, scale 0 to 100)	Plant response rating, Waterhemp (Waterhemp)	Plant response rating: Barley, Spring [4, 9]	Plant response rating: Barley, Spring [4, 10]	Plant response rating: Barley, Spring [4, 11]	Plant response rating, Barley, Spring [4, 12]	Plant response rating, Barley, Spring [4, 13]	Plant response rating, Barley, Spring [4, 14]	Plant response rating, Barley, Spring [4, 15]	Plant response rating, Barley, Spring [4, 16]	Plant response rating: Radish, Wild [5, 9]	Plant response rating: Radish, Wild [5, 10]	also measured
CCc1nn(-c2ccc(F)cc2)nc1Cc1ccnc(C(F)(F)F)c1 [Compound 154]	85	90	100	0	0	0	100	100	100	100	–	–	–	–	–	–	–	–	–	–	Plant response rating, Barnyardgrass [1, 7]: 0; Plant response rating, Barnyardgrass [1, 8]: 5; Plant response rating, Arrowleaf Sida [2, 7]: 0; Plant response rating, Arrowleaf Sida [2, 8]: 0; Plant response rating, Crabgrass, Large [3, 7]: 50; Plant response rating, Crabgrass, Large [3, 8]: 98
CCc1nn(-c2ccc(C(F)(F)F)cc2)nc1Cc1ccnc(C(F)(F)F)c1 [Compound 155]	30	30	100	10	40	75	100	100	100	100	15	25	35	10	0	5	5	10	95	95	Plant response rating: Radish, Wild [5, 11]: 100; Plant response rating, Radish, Wild [5, 12]: 85; Plant response rating, Radish, Wild [5, 13]: 100; Plant response rating, Radish, Wild [5, 14]: 95; Plant response rating, Radish, Wild [5, 15]: 100; Plant response rating, Radish, Wild [5, 16]: 100; Plant response rating: Chickweed [6, 9]: 70; Plant response rating: Chickweed [6, 10]: 75; Plant response rating: Chickweed [6, 11]: 100; Plant response rating, Chickweed [6, 12]: 65; Plant response rating, Chickweed [6, 13]: 35; Plant response rating, Chickweed [6, 14]: 50; Plant response rating, Chickweed [6, 15]: 100; Plant response rating, Chickweed [6, 16]: 100
Cc1nn(-c2ccc(F)c(C(F)(F)F)c2)nc1Cc1ccnc(C(F)(F)F)c1 [Compound 156]	–	–	–	–	–	–	–	–	–	100	20	25	30	15	5	5	5	15	85	100	Plant response rating: Radish, Wild [5, 11]: 100; Plant response rating, Radish, Wild [5, 12]: 65; Plant response rating, Radish, Wild [5, 13]: 5; Plant response rating, Radish, Wild [5, 14]: 10; Plant response rating, Radish, Wild [5, 15]: 100; Plant response rating, Radish, Wild [5, 16]: 100; Plant response rating: Chickweed [6, 9]: 75; Plant response rating: Chickweed [6, 10]: 90; Plant response rating: Chickweed [6, 11]: 95; Plant response rating, Chickweed [6, 12]: 60; Plant response rating, Chickweed [6, 13]: 50; Plant response rating, Chickweed [6, 14]: 100; Plant response rating, Chickweed [6, 15]: 100; Plant response rating, Chickweed [6, 16]: 100
